In ChEMBL document CHEMBL4049409, “Structure-based discovery of LpxC inhibitors” (Bioorg Med Chem Lett, 2017):
Converted amounts (≈) assume the structure as drawn.

Assays:
[1] = biological target: T1, UDP-3-O-acyl-N-acetylglucosamine deacetylase (Pseudomonas aeruginosa (strain ATCC 15692 / PAO1 / 1C / PRS 101 / LMG12228), UniProt P47205); experiment: Inhibition of LpxC in Pseudomonas aeruginosa isolate 44 ATCC 27853
T1 sequence (P47205 whole entry): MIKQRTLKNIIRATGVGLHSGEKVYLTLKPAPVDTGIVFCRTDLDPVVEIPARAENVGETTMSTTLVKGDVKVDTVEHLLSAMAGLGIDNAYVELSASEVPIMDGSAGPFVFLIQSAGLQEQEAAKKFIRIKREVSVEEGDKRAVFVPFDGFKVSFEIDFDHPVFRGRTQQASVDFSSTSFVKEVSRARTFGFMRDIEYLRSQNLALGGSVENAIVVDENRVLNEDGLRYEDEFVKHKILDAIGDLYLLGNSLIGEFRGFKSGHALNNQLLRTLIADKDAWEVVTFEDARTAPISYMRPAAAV

Klebsiella pneumoniae = experiment: Antibacterial activity against Klebsiella pneumoniae isolate 21 ATCC 4352; assay type: functional
Escherichia coli = experiment: Antibacterial activity against Escherichia coli isolate 35 ATCC 25922; assay type: functional
[2] = Inhibition of LpxC in Acinetobacter baumannii focus ID 961025
[3] = Inhibition of LpxC in Klebsiella pneumoniae isolate 21 ATCC 4352
Acinetobacter baumannii = experiment: Antibacterial activity against Acinetobacter baumannii focus ID 961025; assay type: functional
[4] = biological target: T2, UDP-3-O-acyl-N-acetylglucosamine deacetylase (Escherichia coli K-12, UniProt P0A725); experiment: Inhibition of LpxC in Escherichia coli isolate 35 ATCC 25922; set-up: species or system Escherichia coli ATCC 25922
T2 sequence (P0A725 whole entry): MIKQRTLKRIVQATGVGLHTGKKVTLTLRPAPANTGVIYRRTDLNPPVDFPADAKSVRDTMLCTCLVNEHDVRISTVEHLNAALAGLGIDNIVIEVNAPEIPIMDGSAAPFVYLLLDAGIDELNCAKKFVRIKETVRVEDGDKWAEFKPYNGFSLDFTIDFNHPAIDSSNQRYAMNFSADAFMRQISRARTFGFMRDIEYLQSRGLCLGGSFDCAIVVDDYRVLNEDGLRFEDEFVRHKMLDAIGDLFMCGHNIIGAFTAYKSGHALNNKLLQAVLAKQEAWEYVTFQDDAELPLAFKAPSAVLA

Pseudomonas aeruginosa [5] = experiment: Antibacterial activity against Pseudomonas aeruginosa isolate 44 ATCC 27853; assay type: functional
Pseudomonas aeruginosa [6] = experiment: Antibacterial activity against Pseudomonas aeruginosa isolate 839 harboring mexAB-oprM deletion mutant; assay type: functional
Pseudomonas aeruginosa [7] = experiment: Antibacterial activity against Pseudomonas aeruginosa isolate 847; assay type: functional

Structure (SMILES)	IC50 [1] [nM]	MIC (Klebsiella pneumoniae) [µg/mL]	MIC (Escherichia coli) [µg/mL]	IC50 [2] [nM]	IC50 [3] [nM]	MIC (Acinetobacter baumannii) [µg/mL]	IC50 [4] [nM]	MIC (Pseudomonas aeruginosa [5]) [µg/mL]	MIC (Pseudomonas aeruginosa [6]) [µg/mL]	MIC (Pseudomonas aeruginosa [7]) [µg/mL]
C[C@@H](O)[C@H](NC1CCc2cc(C#Cc3ccccc3)ccc21)C(=O)NO (stereo not given in full)	20	0.125 (≈ 0.357 µM)	0.5 (≈ 1.43 µM)	165	5	16 (≈ 45.7 µM)	7	32 (≈ 91.3 µM)	–	–
C[C@@H](O)[C@H](NC1CN(C)Cc2cc(C#Cc3ccccc3)ccc21)C(=O)NO (stereo not given in full)	108	0.5 (≈ 1.32 µM)	2 (≈ 5.27 µM)	310	18	> 128	28	> 128	–	–
C[C@@H](O)[C@H](N[C@H]1CCc2cc(C#Cc3ccc(CN4CCN(C)CC4)cc3)ccc21)C(=O)NO	30	0.125 (≈ 0.27 µM)	0.25 (≈ 0.54 µM)	–	32	–	53	8 (≈ 17.3 µM)	1 (≈ 2.16 µM)	–
CC(C)(N)[C@H](NC1COCc2cc(C#Cc3ccc(CN4CCOCC4)cc3)ccc21)C(=O)NO (stereo not given in full)	8	–	0.5 (≈ 1.04 µM)	–	–	–	5	4 (≈ 8.36 µM)	0.25 (≈ 0.522 µM)	4 (≈ 8.36 µM)
C[C@@H](O)[C@H](N[C@@H]1CCc2cc(C#Cc3ccc(CN4CCOCC4)cc3)ccc21)C(=O)NO	8	0.125 (≈ 0.278 µM)	0.5 (≈ 1.11 µM)	1990	7	64 (≈ 142 µM)	3	128 (≈ 285 µM)	–	–
C[C@@H](O)[C@H](NC1COCc2cc(C#Cc3ccc(CN4CCOCC4)cc3)ccc21)C(=O)NO (stereo not given in full)	6	< 0.125	0.25 (≈ 0.537 µM)	25	1	64 (≈ 137 µM)	1	64 (≈ 137 µM)	–	–
CC(C)(O)[C@H](N[C@H]1CCc2cc(C#Cc3ccc(CN4CCN(CCO)CC4)cc3)ccc21)C(=O)NO	14	–	4 (≈ 7.9 µM)	–	–	–	41	4 (≈ 7.9 µM)	0.5 (≈ 0.987 µM)	32 (≈ 63.2 µM)
CC(C)(N)[C@H](NC1COCc2cc(C#Cc3ccc(Cn4ccnc4CO)cc3)ccc21)C(=O)NO (stereo not given in full)	5	–	4 (≈ 8.17 µM)	–	–	–	3	4 (≈ 8.17 µM)	0.5 (≈ 1.02 µM)	16 (≈ 32.7 µM)
CCCC(N[C@H](C(=O)NO)[C@@H](C)O)c1ccc(C#Cc2ccccc2)cc1 (stereo not given in full)	50	0.25 (≈ 0.682 µM)	2 (≈ 5.46 µM)	273	53	32 (≈ 87.3 µM)	60	64 (≈ 175 µM)	–	–
CNCCOCc1ccc(C#Cc2ccc3c(c2)CC[C@@H]3N[C@H](C(=O)NO)[C@@H](C)O)cc1	6	0.25 (≈ 0.571 µM)	4 (≈ 9.14 µM)	–	11	–	15	16 (≈ 36.6 µM)	2 (≈ 4.57 µM)	–
CCCCC(N[C@H](C(=O)NO)[C@@H](C)O)c1ccc(C#Cc2ccccc2)cc1 (stereo not given in full)	616	2 (≈ 5.26 µM)	64 (≈ 168 µM)	1460	724	> 128	534	> 128	–	–
C[C@@H](O)[C@H](N[C@H]1CCc2cc(C#Cc3ccc(Cn4ccnc4CO)cc3)ccc21)C(=O)NO	–	–	1 (≈ 2.17 µM)	–	4	–	6	4 (≈ 8.69 µM)	0.5 (≈ 1.09 µM)	4 (≈ 8.69 µM)
C[C@@H](O)[C@H](NC1CCOc2cc(C#Cc3ccc(CN4CCOCC4)cc3)ccc21)C(=O)NO (stereo not given in full)	6	< 0.125	2 (≈ 4.3 µM)	83	2	64 (≈ 137 µM)	1	16 (≈ 34.4 µM)	–	–
C[C@@H](O)[C@H](NC1COCc2cc(C#Cc3ccccc3)ccc21)C(=O)NO (stereo not given in full)	14	< 0.125	0.25 (≈ 0.682 µM)	49	1	32 (≈ 87.3 µM)	2	64 (≈ 175 µM)	–	–
C[C@@H](O)[C@H](NCc1ccc(C#Cc2ccccc2)cc1)C(=O)NO	20	0.5 (≈ 1.54 µM)	4 (≈ 12.3 µM)	17	48	32 (≈ 98.6 µM)	67	> 128	–	–
